Active and inactive are the calls of the source.
What was measured:
[1] = target: T1, Induced myeloid leukemia cell differentiation protein Mcl-1 (Homo sapiens, UniProt Q07820); assay: MCL1-BIM BH3 interaction inhibitors, dose response, biochemical, fluorescence polarization, BIM-BH3 peptide, 1536-well (AID 2217)
[2] = target: T1, Induced myeloid leukemia cell differentiation protein Mcl-1; format: functional
Bcl-2-like protein 1 = Bcl-2-like protein 1 (Homo sapiens, UniProt Q07817); assay: BCL-XL inhibitors, dose response, selectivity assay for MCL1 inhibitor project, biochemical, fluorescence polarization, 1536-well (AID 2218)
Sequence of Bcl-2-like protein 1 (Q07817 whole entry): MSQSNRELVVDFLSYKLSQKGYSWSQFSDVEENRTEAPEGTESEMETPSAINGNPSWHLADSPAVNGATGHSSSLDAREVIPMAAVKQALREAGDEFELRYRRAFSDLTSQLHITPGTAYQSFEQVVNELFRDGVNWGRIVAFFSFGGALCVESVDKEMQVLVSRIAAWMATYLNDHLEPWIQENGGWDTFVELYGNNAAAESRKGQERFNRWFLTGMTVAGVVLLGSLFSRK

NADPH oxidase 1 = NADPH oxidase 1 (Homo sapiens, UniProt Q9Y5S8); format: functional, cell-based;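 also: Cell-based assay with luminescence read-out, IC50 derived from inhibitor dose-response curves; intracellular ROS from endogenous NOX1 in intact HT29 colon cancer cells; potency of inhibitors that lower the ROS luminescence signal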
Sequence of NADPH oxidase 1 (Q9Y5S8 whole entry): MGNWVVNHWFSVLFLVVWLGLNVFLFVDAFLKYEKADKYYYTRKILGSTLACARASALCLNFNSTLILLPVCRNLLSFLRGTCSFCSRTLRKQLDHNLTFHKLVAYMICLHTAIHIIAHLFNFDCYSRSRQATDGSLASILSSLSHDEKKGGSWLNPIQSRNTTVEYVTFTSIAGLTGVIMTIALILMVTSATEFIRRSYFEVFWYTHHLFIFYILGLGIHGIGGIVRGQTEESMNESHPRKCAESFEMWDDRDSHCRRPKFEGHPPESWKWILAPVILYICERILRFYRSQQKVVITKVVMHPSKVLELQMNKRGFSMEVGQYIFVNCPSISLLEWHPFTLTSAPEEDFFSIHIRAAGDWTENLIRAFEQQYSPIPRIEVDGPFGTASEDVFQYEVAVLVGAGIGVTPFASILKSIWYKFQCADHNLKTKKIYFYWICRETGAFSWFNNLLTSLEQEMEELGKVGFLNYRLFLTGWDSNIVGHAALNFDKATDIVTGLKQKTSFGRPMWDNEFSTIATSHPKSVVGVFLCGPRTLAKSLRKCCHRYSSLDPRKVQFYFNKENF

Bcl-2-related protein A1 [3] = target: T2, Bcl-2-related protein A1 (Mus musculus, UniProt Q07440); assay: Bfl-1 binding inhibitors, SAR follow-up, biochemical, fluorescence polarization (AID 1070)
T2 sequence (Q07440 whole entry): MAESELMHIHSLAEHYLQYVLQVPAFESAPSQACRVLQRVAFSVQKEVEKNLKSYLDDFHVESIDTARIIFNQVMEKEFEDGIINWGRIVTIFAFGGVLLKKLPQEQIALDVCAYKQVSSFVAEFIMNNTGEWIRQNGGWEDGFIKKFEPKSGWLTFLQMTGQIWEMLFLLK

[4] = target: Glyceraldehyde-3-phosphate dehydrogenase (Homo sapiens, UniProt P04406)
Sequence of Glyceraldehyde-3-phosphate dehydrogenase (P04406 whole entry): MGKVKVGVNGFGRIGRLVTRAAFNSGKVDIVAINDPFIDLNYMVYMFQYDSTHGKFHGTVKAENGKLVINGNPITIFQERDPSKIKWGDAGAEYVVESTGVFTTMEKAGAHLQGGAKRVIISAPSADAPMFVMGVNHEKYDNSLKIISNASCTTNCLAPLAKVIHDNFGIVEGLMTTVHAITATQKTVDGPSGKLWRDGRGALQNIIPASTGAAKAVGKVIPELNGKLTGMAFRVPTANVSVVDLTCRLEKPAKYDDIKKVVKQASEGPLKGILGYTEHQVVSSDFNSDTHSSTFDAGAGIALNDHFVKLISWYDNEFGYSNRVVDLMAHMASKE

Bcl-2-related protein A1 [5] = target: T2, Bcl-2-related protein A1; assay: Bfl-1 inhibitors blocking BH3 peptide binding, confirmation, biochemical, TR-FRET, mouse Bfl-1 (AID 621);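 also: TR-FRET binding of GST-Bfl-1 to FITC-labelled Bid peptide via terbium antibody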
Mucolipin-3 = target: T3, Mucolipin-3 (Homo sapiens, UniProt Q8TDD5); assay: Dose response cell-based high-throughput screening assay for agonists of the transient receptor potential channel ML3 (TRPML3). [Related pubchem assays: 1526, 1424, 1448 ]; format: functional
T3 sequence (Q8TDD5 whole entry): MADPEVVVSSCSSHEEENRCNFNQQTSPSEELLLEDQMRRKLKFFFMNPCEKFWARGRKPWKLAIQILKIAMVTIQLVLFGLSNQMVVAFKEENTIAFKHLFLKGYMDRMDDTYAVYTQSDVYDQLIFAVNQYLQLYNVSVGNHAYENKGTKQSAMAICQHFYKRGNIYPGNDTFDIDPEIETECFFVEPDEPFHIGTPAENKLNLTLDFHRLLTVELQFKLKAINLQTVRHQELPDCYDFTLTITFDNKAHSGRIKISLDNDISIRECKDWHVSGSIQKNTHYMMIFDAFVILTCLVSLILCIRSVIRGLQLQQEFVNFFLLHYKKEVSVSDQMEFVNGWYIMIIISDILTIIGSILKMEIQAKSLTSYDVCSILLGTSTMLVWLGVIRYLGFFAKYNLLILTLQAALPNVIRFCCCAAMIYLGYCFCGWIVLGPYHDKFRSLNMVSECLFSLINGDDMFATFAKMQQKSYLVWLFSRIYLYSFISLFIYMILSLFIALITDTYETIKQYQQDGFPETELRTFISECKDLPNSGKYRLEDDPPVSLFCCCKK

Ion channel NompC = Ion channel NompC (Danio rerio, UniProt Q7T1G6); assay: Fluorescence counterscreen assay for TRPML3 agonists: dose response cell-based high-throughput screening assay to identify agonists of the transient receptor potential channel N1 (TRPN1). [Related pubchem assays: 1526, 1424, 1448 ]; format: functional
[6] = target: T4, Heat shock factor protein 1 (Mus musculus, UniProt P38532); assay: inhibition of MG132-induced HSE-luciferase signal, confirmation, cell-based, NIH3T3, luminescence, dose retest (AID 2382); format: functional;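 also: NIH3T3 fibroblasts with HSF1-driven luciferase reporter stressed by proteasome inhibitor MG132; luminescence from HSF1-driven luciferase expression after 8 hours of MG132 stress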
T4 sequence (P38532 whole entry): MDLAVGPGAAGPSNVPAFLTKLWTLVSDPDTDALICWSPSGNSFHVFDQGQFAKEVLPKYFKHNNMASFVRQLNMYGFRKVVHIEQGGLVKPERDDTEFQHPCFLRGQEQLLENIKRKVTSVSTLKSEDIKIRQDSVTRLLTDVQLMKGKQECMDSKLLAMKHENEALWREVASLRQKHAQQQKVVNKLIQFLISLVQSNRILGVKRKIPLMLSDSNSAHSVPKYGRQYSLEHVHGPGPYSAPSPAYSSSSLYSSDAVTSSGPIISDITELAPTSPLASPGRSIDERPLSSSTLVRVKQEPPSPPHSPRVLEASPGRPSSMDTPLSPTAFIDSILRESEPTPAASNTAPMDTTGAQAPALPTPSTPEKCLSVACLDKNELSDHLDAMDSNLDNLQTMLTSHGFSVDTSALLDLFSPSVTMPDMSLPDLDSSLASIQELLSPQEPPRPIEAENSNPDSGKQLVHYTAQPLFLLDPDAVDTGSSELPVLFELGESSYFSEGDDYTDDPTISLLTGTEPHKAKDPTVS

[7] = target: Mothers against decapentaplegic homolog 3 (Homo sapiens, UniProt P84022); assay: SMAD3 transcription factor inhibitors, dose response (AID 715); format: functional
Sequence of Mothers against decapentaplegic homolog 3 (P84022 whole entry): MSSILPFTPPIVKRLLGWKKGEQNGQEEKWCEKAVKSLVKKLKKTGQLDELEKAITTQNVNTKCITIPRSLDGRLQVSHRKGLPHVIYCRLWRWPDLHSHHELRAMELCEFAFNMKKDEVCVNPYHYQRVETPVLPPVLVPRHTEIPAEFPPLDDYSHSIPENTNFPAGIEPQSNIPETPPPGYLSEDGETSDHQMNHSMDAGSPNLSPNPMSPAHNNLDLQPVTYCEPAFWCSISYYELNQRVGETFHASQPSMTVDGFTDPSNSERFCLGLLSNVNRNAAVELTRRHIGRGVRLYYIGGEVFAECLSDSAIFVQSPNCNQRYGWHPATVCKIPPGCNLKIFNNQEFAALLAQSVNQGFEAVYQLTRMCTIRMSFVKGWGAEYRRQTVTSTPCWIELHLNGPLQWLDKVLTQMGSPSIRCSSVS

[8] = target: T5, Replicative DNA helicase DnaB (Mycobacterium tuberculosis, UniProt P9WMR3); assay: DnaB intein splicing inhibitors, dose response, biochemical, cell-free fluorescence (AID 449749); format: functional
T5 sequence (P9WMR3 whole entry): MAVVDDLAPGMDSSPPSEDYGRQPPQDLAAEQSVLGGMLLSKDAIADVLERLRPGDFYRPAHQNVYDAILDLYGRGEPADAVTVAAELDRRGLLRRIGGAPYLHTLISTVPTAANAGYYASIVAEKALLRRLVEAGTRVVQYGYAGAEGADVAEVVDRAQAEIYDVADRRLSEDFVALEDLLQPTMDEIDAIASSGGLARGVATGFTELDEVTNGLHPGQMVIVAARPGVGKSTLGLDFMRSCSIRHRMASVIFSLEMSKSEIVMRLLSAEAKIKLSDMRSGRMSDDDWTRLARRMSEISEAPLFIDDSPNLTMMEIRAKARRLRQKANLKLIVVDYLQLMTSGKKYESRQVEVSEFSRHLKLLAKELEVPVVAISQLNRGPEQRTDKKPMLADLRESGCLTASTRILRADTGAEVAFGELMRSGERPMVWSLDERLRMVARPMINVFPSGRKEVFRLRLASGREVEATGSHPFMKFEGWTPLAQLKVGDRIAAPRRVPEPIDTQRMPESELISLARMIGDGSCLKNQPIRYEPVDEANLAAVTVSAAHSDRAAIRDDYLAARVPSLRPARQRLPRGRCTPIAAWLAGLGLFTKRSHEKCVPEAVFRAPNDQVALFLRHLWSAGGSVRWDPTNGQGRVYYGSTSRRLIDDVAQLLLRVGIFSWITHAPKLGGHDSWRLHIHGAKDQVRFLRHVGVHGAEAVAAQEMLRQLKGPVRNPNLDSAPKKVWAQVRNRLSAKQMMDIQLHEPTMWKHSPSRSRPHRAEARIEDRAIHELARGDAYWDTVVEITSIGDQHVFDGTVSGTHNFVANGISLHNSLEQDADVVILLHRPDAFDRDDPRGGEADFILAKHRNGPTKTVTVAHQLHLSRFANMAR

[9] = target: Tyrosyl-DNA phosphodiesterase 2 (Homo sapiens, UniProt O95551); assay: human TDP2 enzyme inhibitors, dose response, biochemical, epi absorbance, IC50 (AID 743297)
Sequence of Tyrosyl-DNA phosphodiesterase 2 (O95551 whole entry): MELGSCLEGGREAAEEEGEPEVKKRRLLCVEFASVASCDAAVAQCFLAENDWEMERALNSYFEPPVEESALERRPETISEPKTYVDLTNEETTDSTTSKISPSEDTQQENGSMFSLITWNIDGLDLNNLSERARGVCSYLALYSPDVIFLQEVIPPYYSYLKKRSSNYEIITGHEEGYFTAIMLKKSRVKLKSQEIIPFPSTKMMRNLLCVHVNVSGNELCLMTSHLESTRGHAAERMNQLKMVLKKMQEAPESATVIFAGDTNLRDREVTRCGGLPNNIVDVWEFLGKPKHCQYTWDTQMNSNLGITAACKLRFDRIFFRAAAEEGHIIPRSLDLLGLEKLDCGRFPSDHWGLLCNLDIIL

[10] = target: Lysine-specific demethylase 4C (Homo sapiens, UniProt Q9H3R0); assay: GASC-1 (JMJD2C) histone demethylase inhibitors, dose response, biochemical, DELFIA europium, cherry-picked samples (AID 488835); format: functional
Sequence of Lysine-specific demethylase 4C (Q9H3R0 whole entry): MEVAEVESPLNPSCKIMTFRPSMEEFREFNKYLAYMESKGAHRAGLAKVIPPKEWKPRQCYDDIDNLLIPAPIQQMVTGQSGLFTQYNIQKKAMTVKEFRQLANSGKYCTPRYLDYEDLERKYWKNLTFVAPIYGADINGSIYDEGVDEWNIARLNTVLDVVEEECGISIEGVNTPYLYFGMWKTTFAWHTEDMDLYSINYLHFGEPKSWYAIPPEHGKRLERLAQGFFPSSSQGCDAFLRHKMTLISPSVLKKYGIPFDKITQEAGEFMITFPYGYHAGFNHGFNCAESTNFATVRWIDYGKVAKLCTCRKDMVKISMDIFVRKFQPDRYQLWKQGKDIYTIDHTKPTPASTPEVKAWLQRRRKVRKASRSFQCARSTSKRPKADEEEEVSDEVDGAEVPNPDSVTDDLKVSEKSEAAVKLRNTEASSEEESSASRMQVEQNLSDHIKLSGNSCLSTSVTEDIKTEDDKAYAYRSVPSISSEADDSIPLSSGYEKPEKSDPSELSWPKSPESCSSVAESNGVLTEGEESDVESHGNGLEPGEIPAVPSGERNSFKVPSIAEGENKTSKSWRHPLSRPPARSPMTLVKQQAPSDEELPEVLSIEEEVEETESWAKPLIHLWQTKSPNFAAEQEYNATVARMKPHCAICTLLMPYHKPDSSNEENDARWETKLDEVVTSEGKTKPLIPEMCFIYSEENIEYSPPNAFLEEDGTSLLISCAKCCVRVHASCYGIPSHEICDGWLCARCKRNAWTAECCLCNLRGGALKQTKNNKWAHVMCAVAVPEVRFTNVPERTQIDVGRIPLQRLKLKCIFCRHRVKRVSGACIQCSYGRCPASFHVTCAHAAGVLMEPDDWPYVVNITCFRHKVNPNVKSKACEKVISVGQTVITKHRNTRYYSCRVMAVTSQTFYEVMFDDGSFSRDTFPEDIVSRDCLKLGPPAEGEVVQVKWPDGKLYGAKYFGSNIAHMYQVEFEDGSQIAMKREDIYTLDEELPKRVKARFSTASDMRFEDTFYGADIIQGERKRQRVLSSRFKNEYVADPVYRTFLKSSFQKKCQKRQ

Protein RecA = target: T6, Protein RecA (Mycobacterium tuberculosis, UniProt P9WHJ3); assay: Fluorescence Cell-Free Homogeneous Dose Retest to Identify Inhibitors of RecA-Intein Splicing Activity. [Related pubchem assays (depositor defined):AID2097, AID2223, AID489010, AID492950]; format: functional
T6 sequence (P9WHJ3 whole entry): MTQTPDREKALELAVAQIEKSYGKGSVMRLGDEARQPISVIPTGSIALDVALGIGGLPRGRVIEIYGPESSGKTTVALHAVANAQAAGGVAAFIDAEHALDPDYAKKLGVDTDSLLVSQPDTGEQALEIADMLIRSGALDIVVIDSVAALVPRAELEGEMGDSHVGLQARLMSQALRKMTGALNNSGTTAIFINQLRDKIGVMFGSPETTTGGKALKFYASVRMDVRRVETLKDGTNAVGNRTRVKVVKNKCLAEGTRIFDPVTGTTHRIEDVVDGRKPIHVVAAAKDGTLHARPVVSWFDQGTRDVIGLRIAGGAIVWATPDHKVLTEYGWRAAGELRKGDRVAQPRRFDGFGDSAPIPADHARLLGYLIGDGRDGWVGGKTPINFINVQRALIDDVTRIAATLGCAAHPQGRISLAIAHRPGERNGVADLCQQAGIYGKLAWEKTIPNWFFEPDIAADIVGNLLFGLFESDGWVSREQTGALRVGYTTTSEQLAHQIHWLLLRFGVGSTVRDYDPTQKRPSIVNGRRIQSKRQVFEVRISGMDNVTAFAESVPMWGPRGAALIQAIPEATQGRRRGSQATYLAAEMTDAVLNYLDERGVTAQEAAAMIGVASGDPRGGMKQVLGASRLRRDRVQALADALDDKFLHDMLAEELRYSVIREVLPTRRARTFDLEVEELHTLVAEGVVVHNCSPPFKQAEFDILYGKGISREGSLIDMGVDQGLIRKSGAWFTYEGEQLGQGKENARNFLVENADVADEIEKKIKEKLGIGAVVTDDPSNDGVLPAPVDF

[11] = enhancers of respiration in Yfh1-depleted yeast, dose response, Friedreich's ataxia, plus single-dose screen (AID 1465); format: functional;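 also: yeast depleted of Yfh1p frataxin homolog grown on glycerol needing respiration; WST-1 tetrazolium dye reduction as measure of cellular dehydrogenase metabolic activity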
[12] = target: Sphingosine 1-phosphate receptor 2 (Homo sapiens, UniProt O95136); assay: Dose Response Cell Based Assay for Agonists of the S1P2 Receptor of Purchased Analogues. [Related pubchem assays: 729, 843, 854, 736 ]; format: functional
Sequence of Sphingosine 1-phosphate receptor 2 (O95136 whole entry): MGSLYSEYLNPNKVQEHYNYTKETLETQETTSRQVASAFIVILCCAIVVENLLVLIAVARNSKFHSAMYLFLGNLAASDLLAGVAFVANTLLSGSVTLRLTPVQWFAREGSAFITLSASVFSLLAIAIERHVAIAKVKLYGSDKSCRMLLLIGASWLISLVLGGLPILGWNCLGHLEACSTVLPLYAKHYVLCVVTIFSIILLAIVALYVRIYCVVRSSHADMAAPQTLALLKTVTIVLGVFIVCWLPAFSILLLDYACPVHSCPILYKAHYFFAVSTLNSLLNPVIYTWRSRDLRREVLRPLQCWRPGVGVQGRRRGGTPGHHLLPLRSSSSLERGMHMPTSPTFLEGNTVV

[13] = target: Protein-tyrosine kinase 2-beta (Homo sapiens, UniProt Q14289);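 also: potency of inhibitors of PYK2 kinase phosphorylation of poly-GT substrate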
Sequence of Protein-tyrosine kinase 2-beta (Q14289 whole entry): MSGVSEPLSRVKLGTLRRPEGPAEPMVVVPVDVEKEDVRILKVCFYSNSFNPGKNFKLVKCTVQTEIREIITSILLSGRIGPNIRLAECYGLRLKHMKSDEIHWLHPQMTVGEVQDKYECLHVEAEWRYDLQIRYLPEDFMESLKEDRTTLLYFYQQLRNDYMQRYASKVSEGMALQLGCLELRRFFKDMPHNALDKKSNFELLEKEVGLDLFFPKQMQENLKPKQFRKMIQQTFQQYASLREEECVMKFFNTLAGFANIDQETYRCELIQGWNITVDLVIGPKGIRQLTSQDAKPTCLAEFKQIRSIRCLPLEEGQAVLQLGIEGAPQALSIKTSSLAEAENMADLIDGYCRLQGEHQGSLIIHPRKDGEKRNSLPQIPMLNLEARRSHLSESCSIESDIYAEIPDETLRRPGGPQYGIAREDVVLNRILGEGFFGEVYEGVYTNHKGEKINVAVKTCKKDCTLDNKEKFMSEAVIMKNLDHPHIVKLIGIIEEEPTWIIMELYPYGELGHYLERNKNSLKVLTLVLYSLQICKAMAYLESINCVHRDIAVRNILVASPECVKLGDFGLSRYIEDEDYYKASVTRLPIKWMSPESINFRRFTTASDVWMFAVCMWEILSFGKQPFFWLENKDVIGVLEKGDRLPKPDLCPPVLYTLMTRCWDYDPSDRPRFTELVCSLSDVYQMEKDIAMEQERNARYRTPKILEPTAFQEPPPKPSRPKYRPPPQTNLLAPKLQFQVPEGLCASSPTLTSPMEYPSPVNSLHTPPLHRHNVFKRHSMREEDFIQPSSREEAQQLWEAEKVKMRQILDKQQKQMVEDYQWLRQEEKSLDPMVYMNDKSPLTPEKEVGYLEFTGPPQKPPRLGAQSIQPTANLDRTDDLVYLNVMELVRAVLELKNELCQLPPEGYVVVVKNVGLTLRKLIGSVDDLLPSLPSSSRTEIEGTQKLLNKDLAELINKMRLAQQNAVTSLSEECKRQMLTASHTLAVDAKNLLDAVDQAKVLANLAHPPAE

H4 = assay: Luminescence Cell-Based Dose Response HTS to Identify Activators of 5'UTR Stem-Loop Driven Prion Protein mRNA Translation in H4 Neuroglioblastoma Cells. [Related pubchem assays: 1829 (Project Summary), 1814 (Primary HTS)]; format: functional; conditions: Homo sapiens
[14] = cytotoxicity in MIN6 insulinoma cells, dose response, cytotoxicity control, cell-based, mouse insulinoma (AID 2122); format: functional;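 also: confirmatory high-throughput counterscreen run to flag cytotoxic compounds; mouse MIN-6 beta cells carrying an insulin promoter eGFP reporter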
[15] = Luminescence Cell-Based Dose Confirmation HTS to Identify Activators of 5'UTR Stem-Loop Driven Alpha-Synuclein mRNA Translation in H4 Neuroglioblastoma Cells. [Related pubchem assays: 1829 (Project Summary), 1814 (Primary HTS)]; format: functional
[16] = Luminescence Cell-Based Dose Response HTS to Identify Activators of Luciferase Translation or Activity in H4 […] Cells. [Related pubchem assays: 1829 (Project Summary), 1814 (Primary HTS)]; format: functional
[17] = insulin promoter down-regulators in MIN6 cells, imaging, high-content screening, mouse beta cells (AID 1628); format: functional

T1 sequence (Q07820 whole entry): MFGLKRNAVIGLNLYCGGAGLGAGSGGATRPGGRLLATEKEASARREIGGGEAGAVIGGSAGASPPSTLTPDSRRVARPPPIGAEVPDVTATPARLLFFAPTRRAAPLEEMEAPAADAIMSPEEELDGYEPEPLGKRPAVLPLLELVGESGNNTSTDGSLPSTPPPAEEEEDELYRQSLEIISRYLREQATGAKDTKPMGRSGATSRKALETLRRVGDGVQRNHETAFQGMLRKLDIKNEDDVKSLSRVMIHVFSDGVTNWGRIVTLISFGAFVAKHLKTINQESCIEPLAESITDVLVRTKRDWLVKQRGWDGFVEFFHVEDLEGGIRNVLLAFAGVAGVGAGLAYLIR

In the case of Nc1nc(S)c2ncn(C3OC(CO)C(O)C3O)c2n1 (stereo not drawn), the IC50 [1] is reported as 4.94 µM (active), the IC50 [2] is reported as 7.34 µM (active) and the IC50 (Bcl-2-like protein 1) is reported as 34 µM (not active).
For O=C(O)c1sc2ccccc2c1Cl, the IC50 (NADPH oxidase 1) was > 17 µM (not active).
In the case of O=C1C(Cl)=C(Cl)C(=O)N1c1cc(Cl)cc(Cl)c1, the IC50 (Bcl-2-related protein A1 [3]) is reported as 1.42 µM (active), the IC50 [4] is reported as > 100 µM (not active) and the IC50 (Bcl-2-related protein A1 [5]) is reported as 2.07 µM (active).
With Cc1ccc(NC(=O)c2cnc(N3CCN(c4ccccn4)CC3)c3ccccc23)c(Br)c1 the EC50 (Mucolipin-3) was 4.96 µM (active), the EC50 (Ion channel NompC) was > 29.9 µM (not active) and the EC50 [6] was 8.67 µM (active).
For CC1(C)CC(=O)C(C2(O)C(=O)NC(=O)NC2=O)=C(O)C1, the IC50 [7] was 2.3 µM (active), the AC50 [8] was 1.23 µM (active) and the IC50 [9] was 14.5 µM (inactive). The AC50 [10] was 5.57 µM (active) and the EC50 (Protein RecA) was 2.23 µM (active).
For CCOc1ccc(N=Nc2c(=O)[nH]n3c(C)cc(C)nc23)cc1, the EC50 [11] was > 100 µM (active).
In the case of Cc1cc(C(=O)CN2C(=O)NC(Cc3ccccc3)C2=O)c(C)n1Cc1cccs1 (stereo not drawn), the EC50 [12] is reported as > 30 µM (not active).
In the case of Cc1ccc2[nH]c3c(NCc4ccco4)ncnc3c2c1, the IC50 [13] is reported as > 69.5 µM (not active), the EC50 (H4) is reported as 17.8 µM (active) and the IC50 [14] is reported as 2.95 µM (active). The EC50 [15] was 29.1 µM (active), the EC50 [16] was 20.1 µM (active) and the IC50 [17] was 2.53 µM (active).

Reference: ChEMBL document CHEMBL1201862, “PubChem BioAssay data set” (2004)
